Molecular target: T1, Jack bean urease (Canavalia ensiformis, UniProt P07374)
T1 construct: purchased Fluka Co, Switzerland
Assay: biochemical
Conditions: for inhibition at 50 µg/mL: read-out: Percent of inhibition (50 μg/ml)
Protocol: For urease inhibition assays after addition of phosphate buffer pH = 6.8, sonication was performed for 3 min, followed by centrifugation and evaluating absorbance of upper solution in λ = 278 nm which is attributed to the urease. By using following equation […], where c is the concentration of solution (mol/L), b the Length of the UV cell, we can calculate the concentration of initially urease solution in this way. After appropriate dilution, the concentration of enzyme solution adjusted 2 mg/ml.
The assay mixture, containing 50 μl (2 mg/ml) of Jack-bean urease and 100 μl of different concentration of test compounds, which were dissolved in ethanol 20% previously, was added to 850 μl of 25mM urea and pre-incubated for 0.5 h in water bath at 37°C. The urease reaction was stopped after 30 min incubation by following procedure.
Urease activity was determined by measuring ammonia production using the indophenol method as described by Weatherburn. After pre-incubation, 500 μl of phenol reagent (1% w/v phenol and 0.005% w/v sodium nitroprusside) and 500 μl of alkali reagent (1% w/v NaOH and 0.075% active chloride NaOCl) were added to 100 μl of incubation mixture and kept at 37°C for 30 min.
The absorbance was measured at 625 nm. […] Percentage inhibitions were calculated using the formula (100 – (OD sample / OD control) × 100).
The concentration that provokes an inhibition halfway between the minimum and maximum response of each compound (relative IC50) was determined by monitoring the inhibition effect of various concentrations of compounds in the assay. The IC50 values were then calculated using GraphPad Prism 5 software.

T1 sequence (P07374 whole entry, looked up): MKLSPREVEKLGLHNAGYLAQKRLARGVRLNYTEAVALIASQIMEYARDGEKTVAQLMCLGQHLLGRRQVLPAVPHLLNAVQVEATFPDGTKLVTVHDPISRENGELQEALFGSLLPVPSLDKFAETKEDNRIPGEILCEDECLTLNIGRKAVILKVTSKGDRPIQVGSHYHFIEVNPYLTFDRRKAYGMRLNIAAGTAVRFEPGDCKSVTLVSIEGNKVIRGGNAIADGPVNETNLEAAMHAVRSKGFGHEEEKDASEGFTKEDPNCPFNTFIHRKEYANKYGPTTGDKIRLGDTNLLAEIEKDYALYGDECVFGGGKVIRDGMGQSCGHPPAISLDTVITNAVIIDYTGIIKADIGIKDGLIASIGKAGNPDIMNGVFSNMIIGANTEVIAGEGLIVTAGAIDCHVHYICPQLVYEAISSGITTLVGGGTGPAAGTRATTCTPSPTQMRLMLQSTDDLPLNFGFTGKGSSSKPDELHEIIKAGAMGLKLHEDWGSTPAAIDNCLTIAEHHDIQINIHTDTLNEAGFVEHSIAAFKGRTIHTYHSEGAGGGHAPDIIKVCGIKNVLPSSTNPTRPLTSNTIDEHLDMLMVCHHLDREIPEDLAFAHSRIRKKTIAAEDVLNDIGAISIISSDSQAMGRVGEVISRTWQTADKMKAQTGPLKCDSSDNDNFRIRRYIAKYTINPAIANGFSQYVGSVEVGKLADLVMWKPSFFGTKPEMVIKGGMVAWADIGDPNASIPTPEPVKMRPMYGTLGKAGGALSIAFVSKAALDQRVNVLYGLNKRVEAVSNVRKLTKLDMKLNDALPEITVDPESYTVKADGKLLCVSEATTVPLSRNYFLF

C[C@H]1[C@H](C)CC[C@]2(C)CC[C@]3(C)C(=CC(=O)[C@@H]4[C@@]5(C)CC[C@@H](O)[C@](C)(C(=O)O)[C@@H]5CC[C@]43C)[C@H]12 [compound 4, 11-keto-β-boswellic acid] was tested, and the IC50 was 85.23 ± 0.065 µM and the inhibition at 50 µg/mL was 39.1%.

CC(=O)O[C@@H]1CC[C@@]2(C)[C@@H](CC[C@]3(C)[C@@H]2C(=O)C=C2[C@@H]4[C@@H](C)[C@H](C)CC[C@]4(C)CC[C@]23C)[C@@]1(C)C(=O)O [compound 3, 3-O-acetyl-11-keto-β-boswellic acid] showed an IC50 of 16.34 ± 0.063 µM and an inhibition at 50 µg/mL of 37.4%.

CC(=O)OC1CCC2(C)C(CCC3(C)C2C(O)C=C2C4C(C)C(C)CCC4(C)CCC23C)C1(C)C(=O)O (stereo not drawn) [compound 2, 3-O-acetyl-11-hydroxy-β-boswellic acid] showed an IC50 of 9.21 ± 0.069 µM and an inhibition at 50 µg/mL of 56.2%.

For NC(N)=S [Thiourea, thiourea, reference compound], the “Percent of inhibition (50 μg/ml)” value (50 μg/ml test compound, Jack bean urease, 25 mM urea, 37°C) was 88.0%.

Reference: publication PMC3575251, “Urease inhibitory activities of β-boswellic acid derivatives” (DARU Journal of Pharmaceutical Sciences, 2013)
